In one series the test system is Vibrio parahaemolyticus. As to the kind of experiment: Antibacterial activity against Vibrio parahaemolyticus assessed as reduction in bacterial growth. Conditions: time 24 hrs. Format: functional.
Another series concerns Bacillus subtilis. As to the kind of experiment: Antibacterial activity against Bacillus subtilis assessed as reduction in bacterial growth. The conditions noted are these: time 24 hrs. The format is functional.
A further series deals with Bacillus cereus. As to the kind of experiment: Antibacterial activity against Bacillus cereus assessed as reduction in bacterial growth. The format is functional. The conditions noted are these: time 24 hrs.
Series [1] has as its system Staphylococcus aureus. The series can be described thus: Antibacterial activity against methicillin-resistant Staphylococcus aureus assessed as reduction in bacterial growth. The format is functional. The conditions noted are these: time 24 hrs.
Another series has as its system Escherichia coli. The series can be described thus: Antibacterial activity against Escherichia coli assessed as reduction in bacterial growth. Format: functional. Conditions: time 24 hrs.
A further series relates to Mycolicibacterium phlei. As to the kind of experiment: Antibacterial activity against Mycobacterium phlei assessed as reduction in bacterial growth. Format: functional. Conditions: time 24 hrs.
A further series concerns Proteus sp. As to the kind of experiment: Antibacterial activity against Proteus sp. assessed as reduction in bacterial growth. The format is functional. Conditions: Proteus sp. (in: enterobacteria); time 24 hrs.
The nature of series [2]: Cytotoxicity against human L02 cells assessed as cell growth inhibition at 30 uM by SRB assay relative to control. The conditions noted are these: read-out: GI. Format: cell-based.
For the next series, the system named is K562. As to the kind of experiment: Cytotoxicity against human K562 cells assessed as cell growth inhibition at 30 uM by MTT assay relative to control. Format: functional. Conditions: read-out: GI.
The test system of a further series is ASPC1. The series can be described thus: Cytotoxicity against human ASPC1 cells assessed as cell growth inhibition at 30 uM by SRB assay relative to control. The format is functional. Conditions: read-out: GI. A general note: In SRB staining, fixed cells bind dye roughly in proportion to their protein.
A further series concerns MDA-MB-231. The series can be described thus: Cytotoxicity against human MDA-MB-231 cells assessed as cell growth inhibition at 30 uM by SRB assay relative to control. Conditions: read-out: GI. Format: functional.
For series [3], the system named is Staphylococcus aureus. As to the kind of experiment: Potency index, ratio of ciprofloxacin MIC to test compound MIC for methicillin-resistant Staphylococcus aureus. Format: functional.

Each structure is given as a SMILES string. Values after ≈ are worked out from the molar mass of the structure shown.

As usually defined, the MIC is the smallest concentration in the dilution series that meets the test's criterion for growth inhibition. `O=C(O)c1cn(C2CC2)c2cc(N3CCNCC3)c(F)cc2c1=O` [CIPROFLOXACIN]: the MIC with Vibrio parahaemolyticus is 0.39 µM (≈ 0.129 µg/mL); with Bacillus subtilis it was 0.39 µM (≈ 0.129 µg/mL); in the series with Bacillus cereus, 1.5 µM (≈ 0.497 µg/mL); with Staphylococcus aureus [1], 50 µM (≈ 16.6 µg/mL); in the series with Escherichia coli, 0.78 µM (≈ 0.258 µg/mL); in the series with Mycolicibacterium phlei, 0.78 µM (≈ 0.258 µg/mL). In addition, in the series with Proteus sp., the MIC came to 1.5 µM (≈ 0.497 µg/mL).

Consider `COC1=C(c2ccc(OC)cc2)C(=O)C(SC)=C(c2ccc(OC)cc2)C1=O`, for which the inhibition at 30 µM in series [2] is less than 50%. For the same compound, the inhibition of growth at 30 µM in the series on K562, in the series with ASPC1 and in the series on MDA-MB-231 was less than 50% in each case.

As to `COC(=O)CCSC1=C(c2ccc(OC)cc2)C(=O)C(OC)=C(c2ccc(OC)cc2)C1=O`, the MIC in the series on Vibrio parahaemolyticus is greater than 50 µM; in the series on Bacillus subtilis, 12 µM (≈ 5.62 µg/mL); in the series on Bacillus cereus, greater than 50 µM; in the series on Staphylococcus aureus [1] it was 6.2 µM (≈ 2.9 µg/mL); with Escherichia coli, greater than 50 µM; in the series with Mycolicibacterium phlei, greater than 50 µM. The minimum inhibitory concentration (MIC) in the series with Proteus sp. came out at 12 µM (≈ 5.62 µg/mL). Besides, the Ratio in the series with Staphylococcus aureus [3] worked out at 8. Moreover, the inhibition at 30 µM in [2] was less than 50%. Moreover, the inhibition of growth at 30 µM in the series with K562, in the series on ASPC1 and in the series with MDA-MB-231 was less than 50% in each case.

Take `COC(=O)CSC1=C(c2ccc(OC)cc2)C(=O)C(OC)=C(c2ccc(OC)cc2)C1=O`: in series [2], the inhibition at 30 µM is less than 50%. In addition, the inhibition of growth at 30 µM with K562, with ASPC1 and with MDA-MB-231 was less than 50% each time.

For `COC1=C(c2ccc(OC)cc2)C(=O)C(N)=C(c2ccc(OC)cc2)C1=O`, the inhibition at 30 µM in [2] was less than 50%. The inhibition of growth at 30 µM in the series on K562, in the series with ASPC1 and with MDA-MB-231 was less than 50% each time.

With `COc1ccc(-c2c(OC)c(O)c(-c3ccc(OC)cc3)c3sc(-c4nccs4)nc23)cc1`, the MIC was 6.2 µM (≈ 2.95 µg/mL) in the series with Vibrio parahaemolyticus; 3.1 µM (≈ 1.48 µg/mL) in the series on Bacillus subtilis; 1.5 µM (≈ 0.715 µg/mL) with Bacillus cereus; greater than 50 µM in the series with Staphylococcus aureus [1]; 3.1 µM (≈ 1.48 µg/mL) with Escherichia coli; 6.2 µM (≈ 2.95 µg/mL) in the series on Mycolicibacterium phlei. In addition, the minimum inhibitory concentration (MIC) in the series with Proteus sp. was 3.1 µM (≈ 1.48 µg/mL). Also, the inhibition at 30 µM in [2] is less than 50%. For the same compound, the inhibition of growth at 30 µM with K562, in the series with ASPC1 and in the series on MDA-MB-231 was less than 50% each time.

Values taken from ChEMBL document CHEMBL4837184, “Antibacterial p-Terphenyl with a Rare 2,2'-Bithiazole Substructure and Related Compounds Isolated from the Marine-Derived Actinomycete Nocardiopsis sp. HDN154086” (J Nat Prod, 2021).
